{"source": "PubChem BioAssay (NCI)", "assay_in_all_cases": "NCI tumour cell line growth inhibition, 48 h", "key": {"HT29 colon": {"system": "HT29 colon"}, "SF-268 CNS": {"system": "SF-268 CNS"}, "KM12 colon": {"system": "KM12 colon"}, "SK-MEL-5 melanoma": {"system": "SK-MEL-5 melanoma"}, "HCC-2998 colon": {"system": "HCC-2998 colon"}, "OVCAR-3 ovarian": {"system": "OVCAR-3 ovarian"}, "HL-60(TB) leukemia": {"system": "HL-60(TB) leukemia"}, "UACC-257 melanoma": {"system": "UACC-257 melanoma"}, "SN12C renal": {"system": "SN12C renal"}, "SW-620 colon": {"system": "SW-620 colon"}, "MALME-3M melanoma": {"system": "MALME-3M melanoma"}, "NCI-H522 lung": {"system": "NCI-H522 lung"}, "HCT-15 colon": {"system": "HCT-15 colon"}, "COLO 205 colon": {"system": "COLO 205 colon"}, "SF-539 CNS": {"system": "SF-539 CNS"}, "ACHN renal": {"system": "ACHN renal"}, "NCI-H23 lung": {"system": "NCI-H23 lung"}, "SK-MEL-28 melanoma": {"system": "SK-MEL-28 melanoma"}, "HOP-62 NSCLC": {"system": "HOP-62 NSCLC"}, "SK-OV-3 ovarian": {"system": "SK-OV-3 ovarian"}, "SR leukemia": {"system": "SR leukemia"}, "SF-295 CNS": {"system": "SF-295 CNS"}, "LOX IMVI melanoma": {"system": "LOX IMVI melanoma"}, "EKVX NSCLC": {"system": "EKVX NSCLC"}, "NCI/ADR-RES ovarian": {"system": "NCI/ADR-RES ovarian"}, "OVCAR-5 ovarian": {"system": "OVCAR-5 ovarian"}, "HS 578T breast": {"system": "HS 578T breast"}, "NCI-H460 lung": {"system": "NCI-H460 lung"}, "CAKI-1 renal": {"system": "CAKI-1 renal"}}, "note": "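These data come from cells grown in 96-well plates and exposed to compound for 48 hours at five concentrations. GI50 is the concentration that inhibits growth by half. TGI is the concentration that stops growth completely.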", "data": [{"smiles": "CC(C)(C)Nc1nc2c(OCCc3ccccc3)cccn2c1-c1ccc(Cl)cc1", "values": [{"measurement": "GI50", "setting": "HT29 colon", "value": 19.7, "unit": "µM"}, {"measurement": "TGI", "setting": "HT29 colon", "value": 53.6, "unit": "µM"}, {"measurement": "GI50", "setting": "SF-268 CNS", "value": 27.1, "unit": "µM"}, {"measurement": "TGI", "setting": "SF-268 CNS", "value": "> 100", "unit": "µM"}, {"measurement": "GI50", "setting": "KM12 colon", "value": 22.2, "unit": "µM"}, {"measurement": "TGI", "setting": "KM12 colon", "value": 69.9, "unit": "µM"}, {"measurement": "GI50", "setting": "SK-MEL-5 melanoma", "value": 17, "unit": "µM"}, {"measurement": "TGI", "setting": "SK-MEL-5 melanoma", "value": 32.6, "unit": "µM"}, {"measurement": "GI50", "setting": "HCC-2998 colon", "value": 28.1, "unit": "µM"}, {"measurement": "TGI", "setting": "HCC-2998 colon", "value": "> 100", "unit": "µM"}, {"measurement": "GI50", "setting": "OVCAR-3 ovarian", "value": 16.4, "unit": "µM"}, {"measurement": "TGI", "setting": "OVCAR-3 ovarian", "value": 64.8, "unit": "µM"}, {"measurement": "GI50", "setting": "HL-60(TB) leukemia", "value": 25.7, "unit": "µM"}, {"measurement": "TGI", "setting": "HL-60(TB) leukemia", "value": 74.5, "unit": "µM"}, {"measurement": "GI50", "setting": "UACC-257 melanoma", "value": 26.4, "unit": "µM"}, {"measurement": "TGI", "setting": "UACC-257 melanoma", "value": 89.9, "unit": "µM"}, {"measurement": "GI50", "setting": "SN12C renal", "value": 22.4, "unit": "µM"}, {"measurement": "TGI", "setting": "SN12C renal", "value": "> 100", "unit": "µM"}, {"measurement": "GI50", "setting": "SW-620 colon", "value": 28.1, "unit": "µM"}, {"measurement": "TGI", "setting": "SW-620 colon", "value": "> 100", "unit": "µM"}, {"measurement": "GI50", "setting": "MALME-3M melanoma", "value": 23.9, "unit": "µM"}, {"measurement": "TGI", "setting": "MALME-3M melanoma", "value": 59, "unit": "µM"}, {"measurement": "GI50", "setting": "NCI-H522 lung", "value": 16.1, "unit": "µM"}, {"measurement": "TGI", "setting": "NCI-H522 lung", "value": 54.3, "unit": "µM"}, {"measurement": "GI50", "setting": "HCT-15 colon", "value": 17.3, "unit": "µM"}, {"measurement": "TGI", "setting": "HCT-15 colon", "value": 43.1, "unit": "µM"}, {"measurement": "GI50", "setting": "COLO 205 colon", "value": 16.4, "unit": "µM"}, {"measurement": "TGI", "setting": "COLO 205 colon", "value": 34.7, "unit": "µM"}, {"measurement": "GI50", "setting": "SF-539 CNS", "value": 18.5, "unit": "µM"}, {"measurement": "TGI", "setting": "SF-539 CNS", "value": 37.8, "unit": "µM"}, {"measurement": "GI50", "setting": "ACHN renal", "value": 27.3, "unit": "µM"}, {"measurement": "TGI", "setting": "ACHN renal", "value": "> 100", "unit": "µM"}, {"measurement": "GI50", "setting": "NCI-H23 lung", "value": 25.3, "unit": "µM"}, {"measurement": "TGI", "setting": "NCI-H23 lung", "value": 83.4, "unit": "µM"}, {"measurement": "GI50", "setting": "SK-MEL-28 melanoma", "value": 27.6, "unit": "µM"}, {"measurement": "TGI", "setting": "SK-MEL-28 melanoma", "value": "> 100", "unit": "µM"}, {"measurement": "GI50", "setting": "HOP-62 NSCLC", "value": 20.2, "unit": "µM"}, {"measurement": "TGI", "setting": "HOP-62 NSCLC", "value": 52.8, "unit": "µM"}, {"measurement": "GI50", "setting": "SK-OV-3 ovarian", "value": 24.5, "unit": "µM"}, {"measurement": "TGI", "setting": "SK-OV-3 ovarian", "value": 75.7, "unit": "µM"}, {"measurement": "GI50", "setting": "SR leukemia", "value": 19.3, "unit": "µM"}, {"measurement": "TGI", "setting": "SR leukemia", "value": "> 100", "unit": "µM"}, {"measurement": "GI50", "setting": "SF-295 CNS", "value": 24.8, "unit": "µM"}, {"measurement": "TGI", "setting": "SF-295 CNS", "value": 61.8, "unit": "µM"}, {"measurement": "GI50", "setting": "LOX IMVI melanoma", "value": 17.1, "unit": "µM"}, {"measurement": "TGI", "setting": "LOX IMVI melanoma", "value": 33.3, "unit": "µM"}, {"measurement": "GI50", "setting": "EKVX NSCLC", "value": 22.5, "unit": "µM"}, {"measurement": "TGI", "setting": "EKVX NSCLC", "value": 86, "unit": "µM"}, {"measurement": "GI50", "setting": "NCI/ADR-RES ovarian", "value": 21.6, "unit": "µM"}, {"measurement": "TGI", "setting": "NCI/ADR-RES ovarian", "value": 82.4, "unit": "µM"}, {"measurement": "GI50", "setting": "OVCAR-5 ovarian", "value": 23.7, "unit": "µM"}, {"measurement": "TGI", "setting": "OVCAR-5 ovarian", "value": "> 100", "unit": "µM"}, {"measurement": "GI50", "setting": "HS 578T breast", "value": 20.8, "unit": "µM"}, {"measurement": "TGI", "setting": "HS 578T breast", "value": 77.5, "unit": "µM"}, {"measurement": "GI50", "setting": "NCI-H460 lung", "value": 18.9, "unit": "µM"}, {"measurement": "TGI", "setting": "NCI-H460 lung", "value": 50.5, "unit": "µM"}, {"measurement": "GI50", "setting": "CAKI-1 renal", "value": 25.1, "unit": "µM"}, {"measurement": "TGI", "setting": "CAKI-1 renal", "value": "> 100", "unit": "µM"}]}]}
